Consider 25 molecules from patent US10526327B2, “Histone demethylase inhibitors” (CELGENE QUANTICEL RESEARCH, INC., priority 2013, dated 2020).

Broadly, the pIC50 is the IC50 on a negative log10 scale, so that one unit is a factor of ten.

Structures are written as SMILES. pIC50: −log10 of the molar value.

In one assay the test system is KDM5A/B. Put plainly: In vitro cell-based assay: immuno-blot quantification of tri-methyl H3K4 in ZR-75-1 breast cancer cells. The settings on record: 72 hours, tri-methyl H3K4 level relative to GAPDH, percent of DMSO, read-out: Cellular IC50. In outline:
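ZR-75-1 breast cancer cells treated 72 h with 11-point compound dilutions (1250 μM to 10 nM). H3K4me3 quantified by infrared immunoblot densitometry, normalized to GAPDH and expressed as percent of DMSO control; relative IC50 from curve fit.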

For a further assay, the target named is T1, Jarid1B (Homo sapiens, UniProt Q9UGL1).
T1 construct: purchased BPS Bioscience or custom made by MolecularThroughput 50121
T1 sequence (Q9UGL1 2-751): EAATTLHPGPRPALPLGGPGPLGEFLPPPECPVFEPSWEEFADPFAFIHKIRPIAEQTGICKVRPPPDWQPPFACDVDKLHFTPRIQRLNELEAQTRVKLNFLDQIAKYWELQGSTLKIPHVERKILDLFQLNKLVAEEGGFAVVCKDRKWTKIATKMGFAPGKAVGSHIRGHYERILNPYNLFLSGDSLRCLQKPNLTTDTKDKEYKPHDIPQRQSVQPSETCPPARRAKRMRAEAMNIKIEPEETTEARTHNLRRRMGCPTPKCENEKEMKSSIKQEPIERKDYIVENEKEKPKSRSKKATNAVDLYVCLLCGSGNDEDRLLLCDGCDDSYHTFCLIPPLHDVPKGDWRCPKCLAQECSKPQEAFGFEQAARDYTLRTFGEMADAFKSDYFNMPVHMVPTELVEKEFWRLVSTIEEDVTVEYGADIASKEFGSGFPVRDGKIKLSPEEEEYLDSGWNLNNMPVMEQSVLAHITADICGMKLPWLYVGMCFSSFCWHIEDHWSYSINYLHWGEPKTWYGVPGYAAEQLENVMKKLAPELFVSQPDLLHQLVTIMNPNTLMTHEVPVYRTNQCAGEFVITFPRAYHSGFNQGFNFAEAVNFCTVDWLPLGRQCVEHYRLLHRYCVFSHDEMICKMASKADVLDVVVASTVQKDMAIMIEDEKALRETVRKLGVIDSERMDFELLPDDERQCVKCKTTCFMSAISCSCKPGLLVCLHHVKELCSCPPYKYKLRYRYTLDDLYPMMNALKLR
In words: Jarid1B in vitro enzyme inhibition assay (TR-FRET). The assay is classed as biochemical. In outline:
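TR-FRET read-out of demethylated product (Eu-anti-H3K4me1-2, streptavidin-APC) after EDTA quench; ratio 665/615 fitted to IC50. Reaction: 30 min at RT, 0.8 nM baculovirus Jarid1B residues 2-751, 2 μM α-ketoglutarate, 300 nM H3K4me3-biotin peptide, pH 7.3 buffer with Fe(II) and ascorbate.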
In general terms: Time-resolved FRET reads energy transfer from a long-lived donor to a nearby acceptor.

For the molecule `Oc1nc(Oc2cnn([C@@H]3CCNC3)c2)nc2cnccc12` [Example 125, 2-({1-[(3R)-pyrrolidin-3-yl]-1H-pyrazol-4-yl}oxy)pyrido[3,4-d]pyrimidin-4-ol], the values for the pIC50 in the assay on KDM5A/B and at Jarid1B were less than 5.00 and no less than 7.00, respectively.

Turning to `C[C@@H](c1ccccc1)n1cc(Oc2nc(O)c3ccncc3n2)cn1` [Example 118, 2-({1-[(1S)-1-phenylethyl]-1H-pyrazol-4-yl}oxypyrido) [3,4-d]pyrimidin-4-ol], the pIC50 in the assay on KDM5A/B is 6.00 to 7.00; against Jarid1B, no less than 7.00.

Consider `Oc1nc(Oc2cnn(CCN3CCOCC3)c2)nc2cnccc12` [Example 124, 2-({1-[2-(morpholin-4-yl)ethyl]-1H-pyrazol-4-yl}oxy)pyrido[3,4-d]pyrimidin-4-ol], for which the pIC50 in the assay on KDM5A/B is 6.00 to 7.00; on Jarid1B, no less than 7.00.

As for `Oc1nc(OCCC(F)(F)F)nc2cnccc12` [Example 13, 2-(3,3,3-trifluoropropoxy)pyrido[3,4-d]pyrimidin-4-ol], the pIC50 in the assay with KDM5A/B is less than 5.00; on Jarid1B, 6.00 to 7.00.

For the molecule `Oc1nc(Oc2cnn([C@H]3CCCN(Cc4ccccc4)C3)c2)nc2cnccc12` [Example 168, 2-({1-[(3S)-1-benzylpiperidin-3-yl]-1H-pyrazol-4-yl}oxy)pyrido[3,4-d]pyrimidin-4-ol], the pIC50 with KDM5A/B is 5.00 to 6.00; against Jarid1B, no less than 7.00.

`CCS(=O)(=O)N1CC[C@@H](n2cc(Oc3nc(O)c4ccncc4n3)cn2)C1` [Example 126, 2-({1-[(3R)-1-(ethanesulfonyl)pyrrolidin-3-yl]-1H-pyrazol-4-yl}oxy)pyrido[3,4-d]pyrimidin-4-ol]: the results for the pIC50 with KDM5A/B and against Jarid1B were less than 5.00 and no less than 7.00, respectively.

`Oc1nc(Oc2cnn([C@@H]3CCCN(c4ccc(F)cc4)C3)c2)nc2cnccc12` [Example 159, 2-({1-[(3R)-1-(4-fluorophenyl)piperidin-3-yl]-1H-pyrazol-4-yl}oxy)pyrido[3,4-d]pyrimidin-4-ol]: the pIC50 is 5.00 to 6.00 in the assay with KDM5A/B and no less than 7.00 on Jarid1B.

Regarding `Oc1nc(Oc2cnn([C@@H]3CCN(Cc4ccccc4)C3)c2)nc2cnccc12` [Example 133, 2-({1-[(3R)-1-benzylpyrrolidin-3-yl]-1H-pyrazol-4-yl}oxy)pyrido[3,4-d]pyrimidin-4-ol], the pIC50 in the assay on KDM5A/B was 5.00 to 6.00; against Jarid1B, no less than 7.00.

`N#CCC(=O)N1CCC[C@H](n2cc(Oc3nc(O)c4ccncc4n3)cn2)C1` [Example 166, 3-[(3S)-3-[4-({4-hydroxypyrido[3,4-d]pyrimidin-2-yl}oxy)-1H-pyrazol-1-yl]piperidin-1-yl]-3-oxopropanenitrile]: the pIC50 in the assay on KDM5A/B is less than 5.00; against Jarid1B it was no less than 7.00.

`O=C(CO)N1CC[C@H](n2cc(Oc3nc(O)c4ccncc4n3)cn2)C1` [Example 155, 2-hydroxy-1-[(3S)-3-[4-({4-hydroxypyrido[3,4-d]pyrimidin-2-yl}oxy)-1H-pyrazol-1-yl]pyrrolidin-1-yl]ethan-1-one]: the pIC50 in the assay on KDM5A/B is 5.00 to 6.00; against Jarid1B it was no less than 7.00.

Regarding `N#CCC(=O)N1CCC[C@@H](n2cc(Oc3nc(O)c4ccncc4n3)cn2)C1` [Example 154, 3-[(3R)-3-[4-({4-hydroxypyrido[3,4-d]pyrimidin-2-yl}oxy)-1H-pyrazol-1-yl]piperidin-1-yl]-3-oxopropanenitrile], the pIC50 in the assay with KDM5A/B is less than 5.00; on Jarid1B, no less than 7.00.

For the molecule `O=C(C1CC1)N1CCC[C@@H](n2cc(Oc3nc(O)c4ccncc4n3)cn2)C1` [Example 156, 2-({1-[(3R)-1-cyclopropanecarbonylpiperidin-3-yl]-1H-pyrazol-4-yl}oxy)pyrido[3,4-d]pyrimidin-4-ol], the pIC50 was less than 5.00 in the assay on KDM5A/B and no less than 7.00 against Jarid1B.

For the molecule `Oc1nc(Oc2cnn([C@H]3CCN(c4ccc(F)cc4)C3)c2)nc2cnccc12` [Example 146, 2-({1-[(3S)-1-(4-fluorophenyl)pyrrolidin-3-yl]-1H-pyrazol-4-yl}oxy)pyrido[3,4-d]pyrimidin-4-ol], the pIC50 is 5.00 to 6.00 in the assay with KDM5A/B and no less than 7.00 on Jarid1B.

For the molecule `Oc1nc(Oc2cnn([C@H]3CCN(c4ccc(Cl)cc4)C3)c2)nc2cnccc12` [Example 148, 2-({1-[(3S)-1-(4-chlorophenyl)pyrrolidin-3-yl]-1H-pyrazol-4-yl}oxy)pyrido[3,4-d]pyrimidin-4-ol], the pIC50 in the assay with KDM5A/B was 5.00 to 6.00; against Jarid1B it was no less than 7.00.

For the molecule `O=S(=O)(C1CC1)N1CCCC(n2cc(Oc3nc(O)c4ccncc4n3)cn2)C1` (stereo in doubt) [Example 151, 2-({1-[(3S)-1-(cyclopropanesulfonyl)piperidin-3-yl]-1H-pyrazol-4-yl}oxy)pyrido[3,4-d]pyrimidin-4-ol], the pIC50 in the assay on KDM5A/B is 6.00 to 7.00; against Jarid1B it was no less than 7.00.

For the molecule `C[C@H](c1ccccc1)n1cc(Oc2nc(O)c3ccncc3n2)cn1` [Example 117, 2-({1-[(1R)-1-phenylethyl]-1H-pyrazol-4-yl}oxy)pyrido[3,4-d]pyrimidin-4-ol], the pIC50 in the assay with KDM5A/B is 5.00 to 6.00; at Jarid1B, no less than 7.00.

As for `Oc1nc(Oc2cnn([C@H]3CCN(c4ccccc4)C3)c2)nc2cnccc12` [Example 145, 2-({1-[(3S)-1-phenylpyrrolidin-3-yl]-1H-pyrazol-4-yl}oxy)pyrido[3,4-d]pyrimidin-4-ol], the results for the pIC50 with KDM5A/B and against Jarid1B were 5.00 to 6.00 and no less than 7.00, respectively.

As for `Oc1nc(OCCc2ccccc2)nc2cnccc12` [Example 18, 2-(2-phenylethoxy)pyrido[3,4-d]pyrimidin-4-ol], the pIC50 is 5.00 to 6.00 with KDM5A/B and no less than 7.00 against Jarid1B.

For the molecule `O=C(C1CC1)N1CC[C@@H](n2cc(Oc3nc(O)c4ccncc4n3)cn2)C1` [Example 131, 2-({1-[(3R)-1-cyclopropanecarbonylpyrrolidin-3-yl]-1H-pyrazol-4-yl}oxy)pyrido[3,4-d]pyrimidin-4-ol], the pIC50 was 5.00 to 6.00 in the assay on KDM5A/B and no less than 7.00 on Jarid1B.

Take `O=S(=O)(C1CC1)N1CC[C@H](n2cc(Oc3nc(O)c4ccncc4n3)cn2)C1` [Example 137, 2-({1-[(3S)-1-(cyclopropanesulfonyl)pyrrolidin-3-yl]-1H-pyrazol-4-yl}oxy)pyrido[3,4-d]pyrimidin-4-ol]: the negative logarithm of the IC50 (pIC50) in the assay on KDM5A/B was 6.00 to 7.00; against Jarid1B it was no less than 7.00.

For `Oc1nc(Oc2cnn([C@@H]3CCCN(Cc4ccccc4)C3)c2)nc2cnccc12` [Example 158, 2-({1-[(3R)-1-benzylpiperidin-3-yl]-1H-pyrazol-4-yl}oxy)pyrido[3,4-d]pyrimidin-4-ol], the results for the pIC50 in the assay on KDM5A/B and against Jarid1B were 6.00 to 7.00 and no less than 7.00, respectively.

`CC(=O)N1CC[C@H](n2cc(Oc3nc(O)c4ccncc4n3)cn2)C1` [Example 139, 1-[(3S)-3-[4-({4-hydroxypyrido[3,4-d]pyrimidin-2-yl}oxy)-1H-pyrazol-1-yl]pyrrolidin-1-yl]ethan-1-one]: the pIC50 was less than 5.00 with KDM5A/B and no less than 7.00 on Jarid1B.

`O=S(=O)(c1ccccc1)N1CC[C@@H](n2cc(Oc3nc(O)c4ccncc4n3)cn2)C1` [Example 128, 2-({1-[(3R)-1-(benzenesulfonyl)pyrrolidin-3-yl]-1H-pyrazol-4-yl}oxy)pyrido[3,4-d]pyrimidin-4-ol]: the pIC50 is 5.00 to 6.00 in the assay on KDM5A/B and no less than 7.00 on Jarid1B.

For `O=S(=O)(C1CC1)N1CCC[C@H](n2cc(Oc3nc(O)c4ccncc4n3)cn2)C1` [Example 162, 2-({1-[(3S)-1-(cyclopropanesulfonyl)piperidin-3-yl]-1H-pyrazol-4-yl}oxy)pyrido[3,4-d]pyrimidin-4-ol], the pIC50 is 6.00 to 7.00 with KDM5A/B and no less than 7.00 on Jarid1B.

As to `CCC(c1ccccc1)n1cc(Oc2nc(O)c3ccncc3n2)cn1` (centres unmarked) [Example 115, 2-{[1-(1-phenylpropyl)-1H-pyrazol-4-yl]oxy}pyrido[3,4-d]pyrimidin-4-ol], the pIC50 in the assay with KDM5A/B was 5.00 to 6.00; at Jarid1B it was no less than 7.00.
